Results as given in US12180197B2, “GLP-1R modulating compounds” (Gilead Sciences, Inc., priority 2021, dated 2024).
pEC50: −log10 of the molar value.

These compounds were tested against T1, GLP-1R (Homo sapiens, UniProt P43220) (assay: GLP-1R Activation - cAMP Assay 1). Conditions: cAMP increase in CHO cells stably expressing GLP-1R; 30 minutes incubation; 10 point dose response.
Assay type: cell-based
Method: GLP-1R Activation—cAMP Assay 1
GLP-1R activation by a compound of the present disclosure was quantified by measuring cAMP increase in CHO cells stably expressing GLP-1R (MultiSpan product #C1267-1a). The cells were harvested and plated in growth medium (DMEM/F-12 (Corning product #10-090-CV) supplemented with 10% FBS (HyClone product #SH30071-03), penicillin/streptomycin (Corning product #30-002CI) and 10 µg/ml puromycin (Gibco product #A11138-03)) at 1,000 cells/well in a 384-well plate (Greiner product #781080). The cells were then incubated overnight at 37° C., 5% CO2. The next day, the medium was removed and the cells were washed with DPBS (Corning product #21-031-CM) before adding the assay medium (HBSS, Corning product #21-023-CV) with 20 mM Hepes (Gibco product #15630-080) and 0.1% BSA (Rockland Immunochemicals product #BSA-1000)). Following the medium change, the cells were incubated for 1 hour at 37° C., 5% CO2. The tested GLP-1 compound was added to the cells in a 10 point dose response followed by a 30 minutes incubation at 37° C., 5% CO2. cAMP concentration increase was then detected using Cisbio's cAMP Gs Dynamic Kit (product #62AM4PEC) according to the manufacturer's protocol. The response was plotted against the log of the agonist concentration and fitted to a sigmoidal equation to determine the EC50.

T1 sequence (P43220 24-463): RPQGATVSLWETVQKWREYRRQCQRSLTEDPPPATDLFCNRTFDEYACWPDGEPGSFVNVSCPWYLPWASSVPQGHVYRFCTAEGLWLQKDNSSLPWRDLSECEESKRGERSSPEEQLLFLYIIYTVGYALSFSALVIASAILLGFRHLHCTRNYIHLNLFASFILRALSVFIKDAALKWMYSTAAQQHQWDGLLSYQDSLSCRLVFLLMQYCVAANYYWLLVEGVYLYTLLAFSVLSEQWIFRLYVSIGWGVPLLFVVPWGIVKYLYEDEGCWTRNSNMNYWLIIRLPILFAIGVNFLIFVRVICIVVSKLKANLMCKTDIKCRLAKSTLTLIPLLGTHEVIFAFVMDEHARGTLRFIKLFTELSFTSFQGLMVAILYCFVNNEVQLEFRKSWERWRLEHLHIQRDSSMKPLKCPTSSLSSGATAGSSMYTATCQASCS

| SMILES | pEC50 |
| --- | --- |
| COCCn1c(CN2CCC(c3cccc(OCc4ccc5c(c4)OCO5)n3)CC2)nc2ccc(C(=O)O)cc21 [Example 7, 2-((4-(6-(benzo[d][1,3]dioxol-5-ylmethoxy)pyridin-2-yl)piperidin-1-yl)methyl)-1-(2-methoxyethyl)-1H-benzo[d]imidazole-6-carboxylic acid] | 5.31 |
| COCCn1c(CN2CCC(c3cccc(OCc4ccc(S(C)(=O)=O)cc4)n3)CC2)nc2ccc(C(=O)O)cc21 [Example 9, 1-(2-methoxyethyl)-2-((4-(6-((4-(methylsulfonyl)benzyl)oxy)pyridin-2-yl)piperidin-1-yl)methyl)-1H-benzo[d]imidazole-6-carboxylic acid] | 5.92 |
| COCCn1c(CN2CCC(c3cccc(OCc4cccc5ccccc45)n3)CC2)nc2ccc(C(=O)O)cc21 [Example 5, 1-(2-methoxyethyl)-2-((4-(6-(naphthalen-1-ylmethoxy)pyridin-2-yl)piperidin-1-yl)methyl)-1H-benzo[d]imidazole-6-carboxylic acid] | 7.30 |

The next lines start with the values.

| pEC50 | SMILES |
| --- | --- |
| 6.91 | COCCn1c(CN2CCC(c3cccc(OCc4ccc5cccnc5c4)n3)CC2)nc2ccc(C(=O)O)cc21 [Example 36, 1-(2-methoxyethyl)-2-((4-(6-(quinolin-7-ylmethoxy)pyridin-2-yl)piperidin-1-yl)methyl)-1H-benzo[d]imidazole-6-carboxylic acid] |
| 6.58 | COCCn1c(CN2CCC(c3cccc(OCc4cccc5occc45)n3)CC2)nc2ccc(C(=O)O)cc21 [Example 32, 2-((4-(6-(benzofuran-4-ylmethoxy)pyridin-2-yl)piperidin-1-yl)methyl)-1-(2-methoxyethyl)-1H-benzo[d]imidazole-6-carboxylic acid] |
| < 5.00 | COCCn1c(CN2CCC(c3cccc(OCc4cccc5[nH]cnc45)n3)CC2)nc2ccc(C(=O)O)cc21 [Example 33, 2-((4-(6-((1H-benzo[d]imidazol-4-yl)methoxy)pyridin-2-yl)piperidin-1-yl)methyl)-1-(2-methoxyethyl)-1H-benzo[d]imidazole-6-carboxylic acid] |

The compounds below were run against T1, GLP-1R (assay: GLP-1R Activation - cAMP Assay 2). Conditions: cAMP increase in CHO cells stably expressing GLP-1R; pre-spotted agonists; assay buffer or 100% Human Plasma (not given); 30 minutes.
Assay type: cell-based
Method: GLP-1R Activation—cAMP Assay 2
GLP-1R activation by small molecule agonists is quantified by measuring cAMP increase in CHO cells stably expressing GLP-1R (MultiSpan product #C1267-1a). 50 nL of agonists are pre-spotted in a 10 point dose response onto 384-well plate (Corning product #CL3826) using the Labcyte Echo System. The cells are harvested and plated in assay buffer (HBSS (Corning product #21-023-CV) with 20 mM Hepes (Gibco product #15630-080) and 0.1% BSA (Rockland Immunochemicals product #BSA-1000)) or 100% Human Plasma (Innovative Research product #50-643-396) at 1,000 cells/well, 10 μL/well, onto the pre-spotted plates. The cells are then incubated for 30 minutes at 37° C., 5% CO2. cAMP concentration increase is then detected using Cisbio's cAMP Gs Dynamic Kit (product #62AM4PEC) according to the manufacturer's protocol. The response is plotted against the log of the agonist concentration and fitted to a sigmoidal equation to determine the EC50.

| SMILES | pEC50 |
| --- | --- |
| Cn1cc(C#Cc2ccc(COc3cccc(C4CCN(Cc5nc6ccc(C(=O)O)cc6n5C[C@@H]5CCO5)CC4)n3)c(F)c2)cn1 [Example 22, 2-[[4-[6-[[2-fluoro-4-[2-(1-methylpyrazol-4-yl)ethynyl]phenyl]methoxy]-2-pyridyl]-1-piperidyl]methyl]-3-[[(2S)-oxetan-2-yl]methyl]benzimidazole-5-carboxylic acid] | 8.51 |
| COCCn1c(CN2CCC(c3cccc(OCc4ccc(-c5cnn(C)c5)cc4F)n3)CC2)nc2ccc(C(=O)O)cc21 [Example 21, 2-((4-(6-((2-fluoro-4-(1-methyl-1H-pyrazol-4-yl)benzyl)oxy)pyridin-2-yl)piperidin-1-yl)methyl)-1-(2-methoxyethyl)-1H-benzo[d]imidazole-6-carboxylic acid] | 8.14 |
| Cn1cc(-c2ccc(COc3cccc(C4CCN(Cc5nc6ccc(C(=O)O)cc6n5C[C@@H]5CCO5)CC4)n3)c(F)c2)nn1 [Example 18, (S)-2-((4-(6-((2-fluoro-4-(1-methyl-1H-1,2,3-triazol-4-yl)benzyl)oxy)pyridin-2-yl)piperidin-1-yl)methyl)-1-(oxetan-2-ylmethyl)-1H-benzo[d]imidazole-6-carboxylic acid] | 8.82 |
| O=C(O)c1ccc2nc(CN3CCC(c4cccc(OCc5ccc(-c6cnc(C7CC7)o6)cc5F)n4)CC3)n(C[C@@H]3CCO3)c2c1 [Example 20, (S)-2-((4-(6-((4-(2-cyclopropyloxazol-5-yl)-2-fluorobenzyl)oxy)pyridin-2-yl)piperidin-1-yl)methyl)-1-(oxetan-2-ylmethyl)-1H-benzo[d]imidazole-6-carboxylic acid] | 8.72 |
| Cn1cc(-c2ccc(COc3cccc(C4CCN(Cc5nc6ccc(C(=O)O)cc6n5C[C@@H]5CCO5)CC4)n3)c(F)c2)cn1 [Example 15, 2-[[4-[6-[[2-fluoro-4-(1-methylpyrazol-4-yl)phenyl]methoxy]-2-pyridyl]-1-piperidyl]methyl]-3-[[(2S)-oxetan-2-yl]methyl]benzimidazole-5-carboxylic acid] | 9.30 |
| COCCn1c(CN2CCC(c3cccc(OCc4ccc(-c5cnn(C(F)F)c5)cc4F)n3)CC2)nc2ccc(C(=O)O)cc21 [Example 16, 2-((4-(6-((4-(1-(difluoromethyl)-1H-pyrazol-4-yl)-2-fluorobenzyl)oxy)pyridin-2-yl)piperidin-1-yl)methyl)-1-(2-methoxyethyl)-1H-benzo[d]imidazole-6-carboxylic acid] | 7.93 |
| COCCn1c(CN2CCC(c3cccc(OCc4ccc(-c5cn(C)nn5)cc4F)n3)CC2)nc2ccc(C(=O)O)cc21 [Example 17, 2-((4-(6-((2-fluoro-4-(1-methyl-1H-1,2,3-triazol-4-yl)benzyl)oxy)pyridin-2-yl)piperidin-1-yl)methyl)-1-(2-methoxyethyl)-1H-benzo[d]imidazole-6-carboxylic acid] | 7.61 |
| O=C(O)c1ccc2nc(CN3CCC(c4cccc(OCc5ccc(-c6cnn(C(F)F)c6)cc5F)n4)CC3)n(C[C@@H]3CCO3)c2c1 [Example 19, (S)-2-((4-(6-((4-(1-(difluoromethyl)-1H-pyrazol-4-yl)-2-fluorobenzyl)oxy)pyridin-2-yl)piperidin-1-yl)methyl)-1-(oxetan-2-ylmethyl)-1H-benzo[d]imidazole-6-carboxylic acid] | 9.70 |

Second part, the compound after the results:

| pEC50 | SMILES |
| --- | --- |
| 8.77 | O=C(O)c1ccc2nc(CN3CCC(c4cccc(OCc5ccc(-c6cn(C7COC7)nn6)cc5F)n4)CC3)n(C[C@@H]3CCO3)c2c1 [Example 24, (S)-2-((4-(6-((2-fluoro-4-(1-(oxetan-3-yl)-1H-1,2,3-triazol-4-yl)benzyl)oxy)pyridin-2-yl)piperidin-1-yl)methyl)-1-(oxetan-2-ylmethyl)-1H-benzo[d]imidazole-6-carboxylic acid] |
| 9.52 | O=C(O)c1ccc2nc(CN3CCC(c4cccc(OCc5ccc(-n6ccnn6)cc5F)n4)CC3)n(C[C@@H]3CCO3)c2c1 [Example 41, (S)-2-((4-(6-((2-fluoro-4-(1H-1,2,3-triazol-1-yl)benzyl)oxy)pyridin-2-yl)piperidin-1-yl)methyl)-1-(oxetan-2-ylmethyl)-1H-benzo[d]imidazole-6-carboxylic acid] |
| 8.77 | O=C(O)c1ccc2nc(CN3CCC(c4cccc(OCc5ccc(-c6cn(C7CC7)nn6)cc5F)n4)CC3)n(C[C@@H]3CCO3)c2c1 [Example 23, (S)-2-((4-(6-((4-(1-cyclopropyl-1H-1,2,3-triazol-4-yl)-2-fluorobenzyl)oxy)pyridin-2-yl)piperidin-1-yl)methyl)-1-(oxetan-2-ylmethyl)-1H-benzo[d]imidazole-6-carboxylic acid] |
| 8.89 | O=C(O)c1ccc2nc(CN3CCC(c4cccc(OCc5ccc(-n6cc(C7CC7)nn6)cc5F)n4)CC3)n(C[C@@H]3CCO3)c2c1 [Example 40, 2-[[4-[6-[[4-(4-cyclopropyltriazol-1-yl)-2-fluoro-phenyl]methoxy]-2-pyridyl]-1-piperidyl]methyl]-3-[[(2S)-oxetan-2-yl]methyl]benzimidazole-5-carboxylic acid] |
